# Laboratory results reported in US6133248A, “Polar drug of prodrug compositions with extended shelf-life storage and a method of making thereof” (priority 1998, dated 2000).
# Where two headings read alike, the source gives them in different places.
# What was measured:
# [1] = Arrhenius plot for phenytoin production rate from fosphenytoin; type: physicochemical
# Description: These values are higher than those reported previously; 30.8 kcal/mol and also are higher than Ea values reported from most other drug degradation studies (10-30 kcal/mol) (Yoshioka, S. Stability of Drugs and Dosage Forms, Nankodo Co. Ltd., Tokyo, 1995; pp.30-67). One possible explanation for the difference may be the effect of temperature on the pH of tris buffer solutions. […] Consequently, the change of phenytoin production rate can attribute not only to the direct effect of temperature on the kinetics but also the effect of temperature on pH. Since our principal goal was to study the effect of temperature on the stability of some protype formulations, buffer pH values were not adjusted at each temperature.
# [2] = high pH 8.5 formulation, refrigeration; cited from earlier work
# [3] = literature value; cited from earlier work
# [4] = 25° C.
# Description: Two different shelf-life criteria were considered; time to exceed phenytoin solubility in the presence and absence of (SBE)7m-β-CD and 0.5% phenytoin production.
# [5] = pH values >8.0; cited from earlier work
# [6] = for Kd: 0.02 m tris buffer
# Protocol: After sonication and mixing by vortex mixer, the phenytoin-suspended solutions were placed in a shaking, temperature controlled water bath for at least 5 days at 25° C. After equilibration, checked by periodic sampling, the suspensions were filtered through a membrane filter (Acrodisc, PVDF 0.2 μm, Gelman). The filtrate was isolated and diluted with HPLC mobile phase and the concentration of phenytoin was determined by HPLC. This work was performed in duplicate.
# This phenomena is illustrated in Scheme (2). The binding constant for the phenytoin/(SBE)7m-β-CD complex, K1 can be calculated by the slope and intercept of the data from FIG. 3 (absence of fosphenytoin) according to Eq 2 (Hiquchi, T and Connors K. A.) […]
# K1 =Slope/Intercept(1-Slope) (2)
# K2, the binding constant for the fosphenytoin/(SBE)7m-β-CD complex can be calculated according to Eq. 6 as follows; K1 =(St-So')/(St-(St-So'))(Lt-(St-so')-x)
# K1 =Slope/So'(1-Slope-x/Lt) (3)
# K2 =x/(St'-x)(Lt-(St-So')-x
# =(x/Lt)/(St'-x)(1-Slope-x/Lt) (4) […]
# x/Lt=1-Slope-Slope/K1 So' (5)
# Eq. 4 and Eq. 5 lead to Eqs. 6 and 7, K2 =(1/(St'-x))K1 So'/Slope-So'K1 -1) (6)
# ≈(1/St')(K1 So'/Slope-So'K1 -1) (7) where various terms are defined in Scheme (2). The term, St'-x, in Eq. 6 represents the free fraction of fosphenytoin in the presence of CD and theoretically should change with increasing CD concentration.
# [7] = cited from earlier work
# [8] = AHFS Drug Information; cited from earlier work
# [9] = Phenytoin solubility in absence and presence of fosphenytoin and (SBE)7m-β-CD; type: physicochemical; conditions: 0.02 m tris buffer
# Protocol: This work was performed in duplicate.
# The fosphenytoin concentration of 80.6 mg/ml (75 mg/ml anhydrous fosphenytoin) was the same as the commercial product. […] The solubility of phenytoin is elevated in the presence of fosphenytoin probably through micellar or complex formation (Anderson et al. J. Pharm. Sci. 74 375-381; Muller et al. Int. J. Pharm. 75 201-209, 1991).
compound,measurement,setting,value
O=C1NC(c2ccccc2)(c2ccccc2)C(=O)N1COP(=O)(O)O [fosphenytoin],"Ea (apparent activation energy), phenytoin production",[1]; pH 7.4,38.9 kcal/mol
same,"Ea (apparent activation energy), phenytoin production",[1]; pH 8.0,39.5 kcal/mol
same,Shelf-life of the prodrug product,[2],two years
same,Kinetics of phenytoin production,"0.02M tris, 60° C., pH 7.4 and 8.0",apparent zero-order kinetics
same,Influence of (SBE)7m-β-CD on phenytoin production rate,"30 or 60 mM (SBE)7m-β-CD, fosphenytoin 80.6 mg/ml",did not appear to influence the phenytoin production rate although here was a very slight trend to greater stability with increasing (SBE)7m-β-CD concentration
same,Kinetics of phenytoin production,"all temperatures, CD concentrations and both pH values",pseudo zero-order kinetics
same,Degradant peaks (phenytoin vs earlier eluting peak),pH 7.4,phenytoin was the major degradant peak observed
same,Rate of Phenytoin Production,"pH 7.4, 25° C., 0 mM CD",0.160 µg/mL/day
same,Rate of Phenytoin Production,"pH 7.4, 25° C., 60 mM CD",0.133 µg/mL/day
same,Rate of Phenytoin Production,"pH 7.4, 37° C., 60 mM CD",0.993 µg/mL/day
same,Rate of Phenytoin Production,"pH 7.4, 50° C., 60 mM CD",21.37 µg/mL/day
same,Rate of Phenytoin Production,"pH 7.4, 60° C., 0 mM CD",111.8 µg/mL/day
same,Degradant peaks (phenytoin vs earlier eluting peak),pH 8,this peak had an area comparable to that of phenytoin
same,Rate of Phenytoin Production,"pH 8.0, 25° C., 0 mM CD",0.083 µg/mL/day
same,Rate of Phenytoin Production,"pH 8.0, 25° C., 30 mM CD",0.088 µg/mL/day
same,Rate of Phenytoin Production,"pH 8.0, 25° C., 60 mM CD",0.075 µg/mL/day
same,Rate of Phenytoin Production,"pH 8.0, 37° C., 0 mM CD",0.634 µg/mL/day
same,Rate of Phenytoin Production,"pH 8.0, 37° C., 30 mM CD",0.600 µg/mL/day
same,Rate of Phenytoin Production,"pH 8.0, 37° C., 60 mM CD",0.562 µg/mL/day
same,Rate of Phenytoin Production,"pH 8.0, 50° C., 30 mM CD",14.43 µg/mL/day
same,Rate of Phenytoin Production,"pH 8.0, 50° C., 60 mM CD",13.82 µg/mL/day
same,Rate of Phenytoin Production,"pH 8.0, 60° C., 0 mM CD",67.20 µg/mL/day
same,Ea reported previously,[3],30.8 kcal/mol
same,Time without phenytoin precipitation,"[4]; 60 mM (SBE)7m-β-CD, either pH",over two years
same,"Physically stable formulations, shelf-life",[4]; pH range 7.4-8.0,greater than two years
same,Time without phenytoin precipitation,"[4]; pH 8.0, 60 mM (SBE)7m-β-CD",at least 17 years
same,Shelf-life by 0.5% phenytoin production criterion,[4]; with (SBE)7m-β-CD,greater than two year
same,Stability at higher pH,[5],more unstable
same,Kd,[6]; pH 7.4,25.6 mM
same,Kd,[6]; pH 8,29.4 mM
O=C1NC(=O)C(c2ccccc2)(c2ccccc2)N1 [phenytoin],Solubility,[7]; pH values <8,20 to 25 µg/mL
same,Intrinsic aqueous solubility,"[7]; phenytoin, background",less than 25 μg/ml
same,Kd,[6]; pH 7.4,0.932 mM
same,Kd,[6]; pH 8,1.26 mM
same,Type of phase solubility diagram,"[6]; 25° C., pH 7.4 and 8.0, presence or absence of 80.6 mg/ml fosphenytoin",AL-type
same,Solubility enhancement in presence of fosphenytoin vs absence,"[6]; (SBE)7m-β-CD, 25° C.",lower than that in the absence of fosphenytoin
same,pKa value,[8],8.06-8.33
same,solubility at 120 h,"[9]; pH 7.4, aqueous buffer, pH 7.4, 0 mM (SBE)7m-β-CD, 25° C., read-out: Phenytoin Conc. (Solubility Criteria)",49.8 µg/mL
same,solubility at 120 h,"[9]; pH 7.4, aqueous buffer, pH 7.4, 60 mM (SBE)7m-β-CD, 25° C., read-out: Phenytoin Conc. (Solubility Criteria)",451 µg/mL
same,solubility at 120 h,"[9]; pH 7.4, aqueous buffer, pH 7.4, 25° C., absence of fosphenytoin, read-out: Solubility of phenytoin",18.1 µg/mL
same,solubility at 120 h,"[9]; pH 7.4, aqueous buffer, pH 7.4, 25° C., presence of fosphenytoin 80.6 mg/ml, read-out: Solubility of phenytoin",49.8 µg/mL
same,solubility at 120 h,"[9]; pH 8, aqueous buffer, pH 8.0, 0 mM (SBE)7m-β-CD, 25° C., read-out: Phenytoin Conc. (Solubility Criteria)",61.9 µg/mL
same,solubility at 120 h,"[9]; pH 8, aqueous buffer, pH 8.0, 30 mM (SBE)7m-β-CD, 25° C., read-out: Phenytoin Conc. (Solubility Criteria)",274 µg/mL
same,solubility at 120 h,"[9]; pH 8, aqueous buffer, pH 8.0, 60 mM (SBE)7m-β-CD, 25° C., read-out: Phenytoin Conc. (Solubility Criteria)",476 µg/mL
same,solubility at 120 h,"[9]; pH 8, aqueous buffer, pH 8.0, 25° C., presence of fosphenytoin 80.6 mg/ml, read-out: Solubility of phenytoin",61.9 µg/mL
same,solubility at 120 h,"[9]; pH 8, aqueous buffer, pH 8.0, 25° C., printed 'in the absence of phenytoin', read-out: Solubility of phenytoin",27.5 µg/mL
